The subject of one test is patients. Put plainly: double-blind multicenter clinical trial, olanzapine versus placebo. The class given is in vivo, human. Conditions: patients randomized to olanzapine or placebo. The source says: A double-blind multicenter clinical trial was designed to assess the safety and efficacy of olanzapine. Patients were randomized to olanzapine or placebo.
Test [1] relates to muscarinic cholinergic receptor. Put plainly: pharmacological studies, muscarinic cholinergic receptor activity.
Another test deals with 5-HT1C receptor. Put plainly: pharmacological studies, 5-HT1C receptor activity.

`Cc1cc2c(s1)Nc1ccccc1N=C2N1CCN(C)CC1` [olanzapine, 2-methyl-4-(4-methyl-1-piperazinyl)-10H-thieno[2,3-b][1,5]benzodiazepine]: the “usefulness for treatment of addictive substance withdrawal (clinical observations)” value with patients was “can be useful for the treatment of addictive substance withdrawal”. In addition, the “muscarinic cholinergic receptor activity” value in test [1] is “has muscarinic cholinergic receptor activity”. In the test on 5-HT1C receptor, the “activity at the 5-HT1C receptor” value is “active”.

Source of the values: patent US6159963A, “Method for treating substance abuse” (Eli Lilly and Company, priority 1996, dated 2000).
